The test system of series [1] is stress ulcer formation in rats. The experiment in a line: WIS: Restraint and Water Immersion Stress-Induced Ulcer Inhibition Test. In kind it is in vivo, rat (male Crj:SD or Slc:SD). The conditions noted are these: 100 mg/kg oral, 10 minutes before 7 h restraint and water immersion (21° C.). As to the method:
WIS: Restraint and Water Immersion Stress-Induced Ulcer Inhibition Test
The degree of inhibition of the stress ulcer formation is tested.
Male Crj:SD or Slc:SD rats (6 to 7-week-old) were fasted overnight, but allowed free access to water. Each group has 5 to 8 of these rats. The sample compound was dissolved or suspended in an aqueous solution of 0.3% sodium carboxymethylcellulose or 0.05% Tween 80 and then was orally administered (100 mg/10 ml/kg). To a control group, the vehicle was administered. 10 minutes later, the rats were placed in a stress cage and immersed to the level of xipfoid process in a water bath (21° C.) for 7 hours. At the end of the stress, the rats were sacrificed by inhalation of ether or carbon dioxide. Then, the stomach of each was removed, inflated by injecting 10 ml of 5% formalin neutral buffer solution, and immersed in 1% formalin neutral buffer solution for 30 minutes or more to be fixed. The stomach was incised along the greater curvature and then the length of each erosion in the glandular portion was determined under dissecting microscope. The sum of the length of erosions per stomach was defined as ulcer index (UI).
The effect obtained when 100 mg/kg of the sample compound had been administered was expressed as ulcer formation inhibitory rate (%) as follows:
ulcer formation inhibitory rate (%)=(1-(UI in sample group/UI in control

Another series relates to mice. On the set-up: species or system mouse (male Slc:ICR). The following applies: mouse, in vivo. Here is the method:
AT: Single Dose Toxicity Pretest
Male Slc:ICR mice (5-week-old) were used. Each group has 3 to 5 mice and each mouse was fasted, but allowed free access to water, for 4 to 5 hours from 9 a.m. in the test day. Then, 2,000 mg/10 ml/kg of the sample compound dissolved or suspended in an aqueous solution of 0.5% sodium carboxymethyl cellulose was orally administered thereto. To a control, only the vehicle was administered. […] The body weight was measured before and after the fasting as well as at the same time everyday. The dead animals were immediately subjected to autopsy and their organs were observed by naked eyes. Also, the living animals were sacrificed with ether or carbon dioxide one week after the administration and then their organs were observed by naked eyes.
The toxicity at the single dose of 2,000 mg/kg of the sample compound was expressed as being classified into 5 levels.
5: mortality rate is 0%; no toxicity is found at all both in behavior and organs.
4: Mortality rate is 0%; while no toxicity is found in organs, slight toxicity is observed in behavior or body weight increase.
3: While there is a dead animal (though not all the animals are dead), no toxicity is found in organs.
2: Regardless of whether there is a dead animal or not, toxicity is found in organs.
1: All the animals are dead.

The subject of series [2] is isolated gastric fundic gland. The experiment in a line: CAP: Acid Secretion Inhibition Test In Vitro ([14C]-aminopyrine uptake). In kind it is cell-based, rabbit (male Japanese White). The conditions noted are these: Oryctolagus cuniculus; final concentration 10^-5 M; histamine 10^-5 M stimulation; read-out: CAP: acid secretion inhibitory rate. Here is the method: CAP: Acid Secretion Inhibition Test In Vitro
The acid secretion inhibitory activity in a cell level is studied. It can also be used for studying the mechanism of the effect.
First, an isolated gastric fundic gland sample was prepared. Namely, a male Japanese White rabbit (2.5 to 3 kg) was anesthetized to death with Nembutal™ and then the abdomen was incised. Immediately thereafter, the stomach was removed and, after its pyloric and cardiac antrum were severed, incised along its greater curvature into two sheets. The gastric contents adhering to the mucosal surface was washed out with ice-cooled PBS (-) and then carefully washed therein. The gastric wall was spread on a cork board with its mucosal surface facing up and the feed and mucus thereon were completely removed with sterile gauze. The mucosa was separated therefrom by a spatula and then collected in ice-cooled PBS (-). After being washed twice with PBS (-), the mucosa was minced into 2-3 mm^3 pieces by scissors. These pieces were further washed twice with a nutrient solution. The nutrient solution comprises 132.4 mM of NaCl, 5.4 mM of KCl, 5 mM of Na2 HPO4. 12H2 O, 1 mM of NaH2 PO4.2H2 O, 1.2 mM of MgSO4, 1 mM of CaCl2, 25 mM of HEPES, 2 mg/ml of glucose, and 1 mg/ml of BSA.
Into 70 ml of the nutrient solution containing 1 mg/ml of collagenase, minced mucosal pieces were dispersed and intensely stirred in a conical flask with a stirrer at 37° C. for 40 to 60 minutes. During this period, 100% O2 was sprayed on the nutrient solution surface and the pH was appropriately measured such that it was immediately adjusted to pH 7.4, when the value was therebelow, with a base. The nutrient solution was added to the reaction solution so as to attain the total amount of about 200 ml. After being filtered through a mesh, the suspension was divisionally introduced into 50 ml centrifuge tubes and left for 15 minutes such that gastric fundic gland was deposited. The supernatant was repeatedly removed by an aspirator, dispersed in the nutrient solution, and then left such that the gastric fundic gland was washed three times. At this time, without using a pipette, the suspension was alternately introduced into two centrifuge tubes so as to effect dispersion. The number of cells was counted under microscope and adjusted to 1.6×10^6 cells/ml.
Then, [^14 C]-aminopyrine uptake test was performed. After an Eppendorf tube was weighed, 10 μl (final concentration: 10^-5 M) of histamine dissolved in the above-mentioned nutrient solution, 10 μl (final concentration: […]) of the test compound dissolved in DMSO, and 10 μl (final concentration: 0.05 μCi/ml) of [^14 C]-aminopyrine diluted with the nutrient solution were introduced therein and then 970 μl of the isolated gastric fundic gland suspension prepared above was added thereto. Subsequently, this mixture was shaken at 37° C. for 40 minutes at 125 cycles/minute. After being centrifuged for 30 seconds, 200 μl of its supernatant was collected into a mini-vial, while the rest was removed by an aspirator. The gland pellet was completely dried as the tube with its lid being opened was kept for one night in a drying oven at 80° C. and then the lid was closed and the weight was determined at room temperature. Then 100 μl of 1N KOH was added thereto and the tube with its lid being closed was treated at 60° C. for 1 to 2 hours so as to dissolve the pellet. Then, the contents thereof were transferred to a mini-vial. Into the mini-vial containing the supernatant or gland pellet, 4 ml of Atomlite™ was added and then the radioactivity was measured by a liquid scintillation counter. Here, after the radioactivity of the gland pellet was corrected by using a sample in which 20 mM of NaSCN was added so as to cancel the hydrogen ion concentration gradient, the integration ratio of aminopyrine specifically trapped by the gland pellet was calculated. This experiment was performed in duplicate.
Here, its principle will be briefly explained. […]

Series [3] can be described thus: MTT: Cell Damaging and Protecting Effect Test. In kind it is cell-based, rabbit (male Japanese White). The conditions noted are these: rabbit, gastric corpus mucosa cells, final concentration 10^-4 M, smaller value is better, read-out: MTT: cell damaging rate. The source says:
MTT: Cell Damaging and Protecting Effect Test
It is confirmed that there is no toxicity in cell level. Those having a toxicity in cell level are inappropriate as an anti-ulcer drug.
A male Japanese White rabbit (2.5 to 3 kg) was anesthetized to death by Nembutal™ and, immediately thereafter, its stomach was removed. The greater curvature of the stomach was incised so as to remove the stomach contents therefrom. After the mucosal surface was washed with HBSS (Hanks' Balanced Salt Solution), the stomach in ice-cooled HBSS was transferred to a laboratory. Then, after the pyloric antrum was removed, the gastric corpus mucosa was separated by a spatula and then minced into 2 to 3 mm^3 pieces in BME (Basal Medium Eagle). Thereafter, these pieces were shaken at 120 to 130 cycles/minute for 15 minutes at 37° C. in BME 60 ml containing 280 U/ml of dispase and 30 to 50 U/ml of collagenase. Here, the concentration of collagenase was appropriately changed for each lot in view of the state of cells. The pieces were washed twice with EBSS (Earle's Balanced Salt Solution) containing 1 mM of EDTA and then shaken in MEM (Minimum Essential Medium) containing 1 mM of EDTA at 37° C. for 5 minutes. Subsequently, they were shaken in the dispase and collagenase having the same concentrations as those mentioned above for 15 minutes so as to remove the supernatant and then further shaken at 37° C. for 50 to 60 minutes at 120 to 130 cycles/minute. Then, after being washed twice with HBSS, Ham F12 containing 2% of Ultrocer G™ was used to attain the concentration of 1×10^6 cells/ml. Thus formed suspension was dispensed in each well of a 96-well plate by 200 μl. The plate was incubated in the atmosphere composed of 5% CO2 and 95% air at 37° C. for three days so as to attain a confluent state and then subjected to MTT assay.
The sample compound was dissolved in DMSO so as to attain a concentration of 10^-2 M and then diluted with HBSS containing 2% of Ultrocer G™ so as to attain a final concentration of 10^-4 M. To each group, which 8 wells were used for, 10 μl of MTT reagent was added immediately after 100 μl of the medium in each well was exchanged for same volume of the resulting solution of the sample compound. After being incubated in an atmosphere composed of 5% CO2 and 95% air at 37° C. for 4 hours, thus formed solution was centrifuged and then its supernatant was discarded. Subsequently, 100 μl of 100% ethanol was added to the residue so as to dissolve MTT formazan. Then, the absorbance (OD: 570 to 630) was measured by a microplate reader. This method utilizes a phenomenon in which MTT is changed to MTT formazan only by mitochondria of living cells so as to change color.
The cell damaging or cell protecting effect of the sample compound at the final concentration of 10^-4 M was expressed as cell damaging rate (%) as follows:
cell damaging rate (%)=(1-(absorbance in sample group/absorbance in control
Accordingly, the smaller value is better in the cell damaging rate.

The values that follow come from patent publication US6001880A, “Alkylenediamine derivative, anti-ulcer drug, and antibacterial drug” (Shiseido Co., Ltd., priority 1997, dated 1999).

Take `CCN(CC)CCNC(=O)c1ccc(OC/C=C(\C)CCC=C(C)C)c(OC)c1` [Example 30]: the “WIS: ulcer formation inhibitory rate” value in series [1] was found to be 84%. Moreover, the “AT: single dose toxicity level” value in the series on mice turned out to be 5. Further, the inhibition at 10 µM in series [2] is 100%.
On to `CCN(CC)CCNC(=O)c1cc(OC)c(OC)c(OC/C=C(\C)CCC=C(C)C)c1` [Example 39], for which the “WIS: ulcer formation inhibitory rate” value in series [1] is reported as 87%. Moreover, the “AT: single dose toxicity level” value in the series with mice is reported as 4.
With `CCN(CC)CCNC(=O)c1ccc(OCC=C(C)C)nc1` [Example 46], the “WIS: ulcer formation inhibitory rate” value in series [1] came out at 65%. Further, in the series on mice, the “AT: single dose toxicity level” value was 3. For the same molecule, in series [3], the cytotoxicity at 4 h, 100 µM is -3%.
As for `CC(C)=CCOc1ccc(C(=O)NCCN(C(C)C)C(C)C)cn1` [Example 48], the “WIS: ulcer formation inhibitory rate” value in series [1] was determined as 75%. The “AT: single dose toxicity level” value with mice is given as 3. In addition, the cytotoxicity at 4 h, 100 µM in series [3] was -13%.
On to `CCN(CC)CCNC(=O)c1ccc(OC/C=C(\C)CCC=C(C)C)nc1` [Example 50], for which, in series [1], the “WIS: ulcer formation inhibitory rate” value turned out to be 42%. In series [2], the inhibition at 10 µM was determined as 95.2%. For the same molecule, in series [3], the cytotoxicity at 4 h, 100 µM was 4%.
For the molecule `CC(C)=CCC/C(C)=C/COc1ccc(C(=O)NCCN(C(C)C)C(C)C)cn1` [Example 51], in series [1], the “WIS: ulcer formation inhibitory rate” value is on record as 72%. Also, the inhibition at 10 µM in series [2] amounted to 94.7%. Moreover, the cytotoxicity at 4 h, 100 µM in series [3] came to 15%.
In the same order, the values of `CCN(CC)CCNC(=O)c1ccc(CC(C)C)c(O)c1` [Example 56] are 69%, 53.4% and 11%.
Turning to `CC(C)Cc1cc(C(=O)NCCN(C(C)C)C(C)C)ccc1OCc1ccc(F)cc1` [Example 57], the “WIS: ulcer formation inhibitory rate” value in series [1] was 45%. For the same molecule, the inhibition at 10 µM in series [2] was 100%. Further, the cytotoxicity at 4 h, 100 µM in series [3] is 43%.
For `CC(C)Oc1ccc(C(=O)NCCN(C(C)C)C(C)C)cc1` [Example 59], the “WIS: ulcer formation inhibitory rate” value in series [1] was 89%. Moreover, the inhibition at 10 µM in series [2] stood at 47.5%. In addition, in series [3], the cytotoxicity at 4 h, 100 µM was determined as 39%.
For the molecule `CCCCCc1ccc(C(=O)NCCN(C(C)C)C(C)C)cc1` [Example 62], the “WIS: ulcer formation inhibitory rate” value in series [1] is on record as 72%. The inhibition at 10 µM in series [2] is 101%. Besides, in series [3], the cytotoxicity at 4 h, 100 µM was 40%.
As for `CC(C)c1ccc(C(=O)NCCN(C(C)C)C(C)C)cc1` [Example 64], the “WIS: ulcer formation inhibitory rate” value in series [1] was found to be 82%. Besides, in series [2], the inhibition at 10 µM was 72.7%. Further, in series [3], the cytotoxicity at 4 h, 100 µM was 39%.
For `CC(C)N(CCNC(=O)c1cccc(CN2CCCCC2)c1)C(C)C` [Example 66] the same measures were 53%, 38.3% and 12%.
In the same order, the values of `CC(C)N(CCNC(=O)c1ccc(NC(=O)C(C)(C)C)cc1)C(C)C` [Example 69] are 95%, 31.5% and 35%.
